Assay results published in US9920010B2, “CXCR7 receptor modulators” (IDORSIA PHARMACEUTICALS LTD, priority 2013, dated 2018).

Target: T1, CXCR7 (Homo sapiens, UniProt P25106)
T1 construct: host or cells: CHO-K1 (PathHunter CHO-K1 CXCR7 b-arrestin cell line, stably transfected)
Test: PathHunter CHO-K1 CXCR7 b-arrestin recruitment assay (CXCR7 agonistic activity)
Format: cell-based
Settings: PathHunter CHO-K1 CXCR7 b-arrestin cell line
Method in brief: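 Stable CHO-K1 line with C-terminally ProLink-tagged CXCR7 and β-arrestin 2–EA fusion; β-arrestin recruitment restores β-gal activity, read by chemiluminescence after 1 h RT detection. Cells seeded 24 h, starved in OPTIMEM 3–4 h, exposed to compounds 90 min at 37 °C in HBSS/HEPES/BSA. Geometric-mean EC50 from repeated measurements.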

T1 sequence (P25106 whole entry): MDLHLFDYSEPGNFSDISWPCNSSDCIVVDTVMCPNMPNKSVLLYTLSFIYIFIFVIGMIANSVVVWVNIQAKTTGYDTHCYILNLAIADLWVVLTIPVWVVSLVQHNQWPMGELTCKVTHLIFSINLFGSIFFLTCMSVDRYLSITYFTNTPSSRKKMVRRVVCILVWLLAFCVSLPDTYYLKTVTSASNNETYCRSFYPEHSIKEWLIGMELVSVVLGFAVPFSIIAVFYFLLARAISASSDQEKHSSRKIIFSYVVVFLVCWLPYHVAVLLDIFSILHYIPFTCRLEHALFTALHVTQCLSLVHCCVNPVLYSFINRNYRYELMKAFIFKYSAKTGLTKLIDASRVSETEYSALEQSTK
T1 sequence (P32121 whole entry partner): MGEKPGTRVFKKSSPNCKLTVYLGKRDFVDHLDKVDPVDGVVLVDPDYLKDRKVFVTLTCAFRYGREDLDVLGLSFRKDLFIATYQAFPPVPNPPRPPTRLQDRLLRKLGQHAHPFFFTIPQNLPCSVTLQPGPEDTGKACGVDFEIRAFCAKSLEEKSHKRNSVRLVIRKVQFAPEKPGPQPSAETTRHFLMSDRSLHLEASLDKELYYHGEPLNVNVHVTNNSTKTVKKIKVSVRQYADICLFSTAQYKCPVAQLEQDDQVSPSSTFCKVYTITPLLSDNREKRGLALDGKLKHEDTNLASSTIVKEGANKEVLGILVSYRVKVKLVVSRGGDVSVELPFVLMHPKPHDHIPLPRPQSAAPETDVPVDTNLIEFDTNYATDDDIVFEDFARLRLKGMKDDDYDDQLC

Row | EC50 | SMILES
1 | 3 nM | CNCCN(Cc1ccccc1C(F)(F)F)C(=O)CNc1cccc2c1CCN(CC1CC1)C2 [Example 179, 2-(2-Cyclopropylmethyl-1,2,3,4-tetrahydro-isoquinolin-5-ylamino)-N-(2-methylamino-ethyl)-N-(2-trifluoromethyl-benzyl)-acetamide]
2 | 92 nM | O=C(CNc1cccc2c1CN(CC1CC1)CC2)N(CCN1CCCC(F)(F)C1)Cc1ccccc1C(F)(F)F [compound 478]
3 | 415 nM | COCCN1CCc2c(CCC(=O)N(Cc3ccccc3C(F)(F)F)CC3(C)COC3)cccc2C1 [Example 343, 3-[2-(2-Methoxy-ethyl)-1,2,3,4-tetrahydro-isoquinolin-5-yl]-N-(3-methyl-oxetan-3-ylmethyl)-N-(2-trifluoromethyl-benzyl)-propionamide]
4 | 240 nM | CN(C)CCN(Cc1ccccc1)C(=O)CNc1cccc2c1CCN(C(=O)c1ccccc1)C2 [compound 125]
5 | 52 nM | CC(C)CCN(Cc1ccccc1C(F)(F)F)C(=O)CNc1cccc2c1CCN(CC1CC1)C2 [Example 48, 2-(2-Cyclopropylmethyl-1,2,3,4-tetrahydro-isoquinolin-5-ylamino)-N-(3-methyl-butyl)-N-(2-trifluoromethyl-benzyl)-acetamide]
6 | 5 nM | Cc1ccc2c(c1NCC(=O)N(CCN(C)C)Cc1ccccc1C(F)(F)F)CCN(CC1CC1)C2 [Example 290, 2-(2-Cyclopropylmethyl-6-methyl-1,2,3,4-tetrahydro-isoquinolin-5-ylamino)-N-(2-dimethylamino-ethyl)-N-(2-trifluoromethyl-benzyl)-acetamide]
7 | 97 nM | CCS(=O)(=O)N1CCc2c(cccc2NCC(=O)N(CCN(C)C)Cc2ccccc2C(F)(F)F)C1 [Example 103, N-(2-Dimethylamino-ethyl)-2-(2-ethanesulfonyl-1,2,3,4-tetrahydro-isoquinolin-5-ylamino)-N-(2-trifluoromethyl-benzyl)-acetamide]
8 | 250 nM | CNCCN(Cc1ccccc1C(F)(F)F)C(=O)CNc1cccc2c1CCN(C(=O)OCC(C)C)C2 [compound 401]

Row | SMILES | EC50
9 | CN(C)CCN(Cc1ccccc1C(F)(F)F)C(=O)COc1cccc2c1CCN(CC1CC1)C2 [compound 174, 2-(2-Cyclopropylmethyl-1,2,3,4-tetrahydro-isoquinolin-5-yloxy)-N-(2-dimethylamino-ethyl)-N-(2-trifluoromethyl-benzyl)-acetamide] | 0.8 nM
